Data published in paper PMC12040169 (PLOS Biology, 2025).

How the values were obtained:
[1] = in vitro; set-up: Viability of infected HeLa host cells, resazurin conversion, bulk resorufin fluorescence relative to DMSO; conditions: human, hela cells; bulk resorufin, mean of 2
[2] = system: T1, CTL2-GFP (C. trachomatis L2/434/Bu, GFP-expressing); test: microbe, parasite or virus in culture; set-up: Intracellular C. trachomatis growth in HeLa cells, bulk GFP fluorescence relative to DMSO; conditions: Chlamydia trachomatis, HeLa, 28.5 h; bulk GFP, mean of 2; read-out: % of control remaining
T1 construct: L2/434/Bu, GFP-expressing
Protocol: MICs were calculated as described above.

[3] = system: T2, C. trachomatis L2/434/Bu expressing GFP (CTL2-GFP); test: microbe, parasite or virus in culture; set-up: C. trachomatis total inclusion area by high-content imaging, normalised to DMSO; conditions: Chlamydia trachomatis, HeLa, 28.5 h; total inclusion area; read-out: % of control remaining
T2 construct: L2/434/Bu GFP intracellular growth in HeLa cells
From the text: We screened a library of 36,785 small molecules displaying drug-like properties and covering a wide chemical space (Fig 1A and S2A Data). In this process, we also complemented the assay described above with an imaging-based readout (Fig 1B). After measurements of bulk GFP and resorufin fluorescence, cells were fixed, stained with the DNA dye Hoechst, and imaged at a high-content imaging platform to detect chlamydial inclusions (GFP) and host cell nuclei (Hoechst). The total area and number of inclusions in individual wells and the number of nuclei then served as additional proxies for chlamydial growth and host cell viability. […] MICs were calculated as described above.

SMILES	viability at 28.5 h, 1 µM [1]	viability at 28.5 h, 5 µM [1]	viability at 28.5 h, 10 µM [1]	activity at 1 µM [2]	activity at 5 µM [2]	activity at 10 µM [2]	activity at 1 µM [3]	activity at 5 µM [3]	activity at 10 µM [3]
CC(=O)Nc1ccc(S(=O)(=O)Nc2ccc(C(=O)Nc3ccc(F)cc3)cc2)cc1 [CBK050401]	93.4%	87.7%	91.8%	101%	31.9%	14.2%	114%	48.5%	30%
c1ccc(CNc2nnc(-c3ccccc3)s2)cc1 [CBK074928]	95%	91.9%	104%	92.7%	77.6%	65.1%	68.4%	34.4%	26.9%
C[C@@H]1CN(c2ccc(C(F)(F)F)c(OCc3ccccc3)n2)CCN1 [CBK003987A]	102%	98.9%	113%	110%	90.5%	35%	70.4%	53.4%	17.6%
CCOc1ccsc1C(=O)Nc1cc(C)ccn1 [CBK004029]	92.3%	92.3%	71.7%	122%	61.7%	32.4%	116%	64.9%	19.7%
Cc1cc(C)nc(NC(=N)NCCc2c[nH]c3ccccc23)n1 [CBK266321]	109%	98.8%	81.2%	89.2%	67.2%	37.1%	75.6%	44.4%	14.7%
O=C1CC[C@@H](NCc2cccs2)[C@H](c2cc(F)cc(F)c2)N1 [CBK283129]	112%	109%	110%	98.3%	98.8%	82.2%	98.3%	76.7%	78.8%
O=C(O)c1[nH]c2ccccc2c1C(c1ccsc1)c1c(C(=O)O)[nH]c2ccccc12 [CBK267811]	99.3%	106%	121%	113%	109%	85.2%	49.5%	80.4%	22.6%
CC(C)(N)CNC(=O)c1cc(C(C)(C)C)nn1Cc1ccc(Cl)cc1Cl [CBK107296]	91.1%	95.2%	93.8%	115%	76.6%	36%	87.7%	54.2%	26.9%
CC(C)NCC(O)Cn1c2c(c3ccccc31)CCc1c-2cnn1-c1ccccc1 (stereo not drawn) [CBK261107]	87.2%	89.4%	82.4%	101%	105%	19.8%	102%	73.8%	19.6%
Cn1nnnc1-c1cccc(NC(=O)c2ccc(Oc3ccccc3)cc2)c1 [CBK297872]	95.1%	88.4%	89.1%	124%	73.3%	27.8%	118%	74.5%	30.8%
Cc1ccc(Nc2ncc(C(=O)NCCCN3CCN(c4cccc(Cl)c4)CC3)c3ccccc23)cc1Cl [CBK291251]	106%	113%	99.2%	89.3%	83.3%	70.2%	93.1%	97.7%	75.8%
O=C(CC1SC(Nc2ccc(O)cc2)=NC1=O)c1ccccc1 (stereo not drawn) [CBK267009]	114%	112%	107%	65.7%	34%	33%	84.6%	35.2%	35.5%
Cc1cc(C)nc(NS(=O)(=O)c2ccc(Nc3ccc4nonc4c3[N+](=O)[O-])cc2)n1 [CBK261444]	92.5%	86.4%	79.7%	132%	92.2%	60.3%	130%	121%	67.5%
COc1cc(NS(=O)(=O)c2ccc(Nc3nc(-c4sc(N)nc4C)cs3)cc2)nc(OC)n1 [CBK262796]	93.6%	92.2%	88%	106%	58.4%	32.6%	110%	55.3%	28.8%
COc1ccc2cc3c(nc2c1)OC(=O)N(CC1CC1)C3 [CBK282432]	112%	108%	110%	92.7%	19%	0.603%	90.9%	15.2%	0.584%
CC(C)(CN)CN(Cc1c[nH]c(-c2ccccc2)n1)C(=O)Nc1ccc(C(C)(C)C)cc1 [CBK002462C]	91.6%	89.2%	72.5%	139%	101%	29.5%	106%	55.9%	29%
O=C(N/N=C\c1ccc([N+](=O)[O-])o1)c1nc(-c2ccccc2)cc(-c2ccccc2)n1 [CBK261958]	90%	91.8%	87.8%	6.03%	1.53%	7.08%	4.65%	0.0567%	0%
Cc1ccc(OCC(O)CN2CCN(c3nc(-c4ccccc4)ns3)CC2)c([N+](=O)[O-])c1 (stereo not drawn) [CBK074696]	104%	99.5%	102%	147%	120%	133%	113%	55.9%	68.2%
O=C(NCCc1c[nH]c2ccc(Cl)cc12)c1ccc(Cl)cc1Cl [CBK159750]	95.1%	93.9%	98.4%	88%	40.4%	8.46%	91.9%	68.5%	6.32%
CC(Oc1cccc2ccccc12)C(=S)N(C)c1ccccc1 (stereo not drawn) [CBK016158]	113%	117%	107%	98.8%	81.4%	67.6%	105%	98.3%	84.8%
CC(C(=O)N1CCC2(CC1)NC(=O)c1ccccc1N2)(c1ccccc1)c1ccccc1 [CBK286308]	97.7%	93.1%	101%	96.5%	59.6%	46.3%	82.6%	44.9%	28.3%
COc1cc(/C=N/c2cccc3c(/N=C/c4ccc(O)c(OC)c4)cccc23)ccc1O [CBK261224]	89.7%	86.7%	81.8%	120%	67.3%	44%	114%	68%	40.8%
CCCCc1ccc(NC(=N)Nc2nc(C)cc(C)n2)cc1 [CBK262967]	90.3%	95.4%	90%	89.4%	33.4%	22%	75.4%	38.5%	9.61%
CC(Nc1cccc2ccccc12)C(=O)N/N=C/c1c(O)ccc2ccccc12 (stereo not drawn) [CBK262678]	90.9%	83%	74.2%	132%	74.4%	72.2%	100%	47.4%	21%
CN(C(=O)Cc1ccsc1)c1nc2c(s1)CCc1c-2cnn1C [CBK281929]	103%	96%	93.3%	104%	56.8%	29.8%	85.4%	28.7%	14.3%
